Source: patent US5821231A, “CS-1 peptidomimetics, compositions and methods of using same” (Cytel Corporation, priority 1995, dated 1998)
Square brackets hold non-standard residues; d marks the D form. Peptide text beside a SMILES is read from it. * marks the point of attachment. PhAc = O=C(Cc1ccccc1)*

How the values were obtained:
[1] = system: New Zealand white rabbits; experiment: Rabbit heterotopic cardiac allograft model; format: in vivo
Description: New Zealand white female rabbits (Charles River Lab., Saint Laurent, Quebec), between 3.5 and 4 kg underwent heterotopic cardiac transplant following an experimental protocol previously described [Alonso et al., Am. J. Pathol., 87:415-442 (1977); Clausell et al., Circulation, 89:2768-2779 (1994)]. The animals were unselected to favor an HLA-mismatch, the host rabbits were Pasteurella-free and the donors, outbred animals. Both host and donor rabbits were fed Purina 5321-0.5 percent cholesterol diet (Research Diets Inc., New Brunswick, N.J.), a strategy that has proven useful in accelerating the process of allograft arteriopathy [Alonso et al., Am, J. Pathol., 87:415-442 (1977)]. The diet was commenced four days prior to the transplant and continued in the recipient of the transplant until the completion of the experimental period.
The technique of heterotopic cardiac transplantation has been previously described [Clausell et al., Circulation, 89:2768-2779 (1994)]. Briefly, a vertical incision was performed in the anterior aspect of the neck of the recipient rabbit and the left common carotid artery and the ipsilateral external jugular vein were isolated. The cardiac allograft was placed in the neck by anastomosing the aorta end-to-side to the recipient's carotid artery and the pulmonary end-to-side to the recipient's external jugular vein, following a total period of ischemia for the donor hearts of approximately 30 minutes. Postoperative care was in compliance with the Principles of Laboratory Animal Care formulated by the Canadian National Society for Medical Research.
Beginning the day of the transplant, the animals were randomized and treated with either scrambled compound (control group) at 1 mg/kg s.c. or the inhibitor compound at 1 mg/kg s.c. The doses of the compounds were empirically extrapolated to the in vivo model based on preliminary in vitro studies, of Table 1. No other immunosuppression therapy was administered. The grafts were monitored daily by palpation and maintained for 7 to 8 days, a previously described endpoint that was associated with myocardial rejection (impaired cardiac contractility) and development of the allograft arteriopathy in this model [Clausell et al., Circulation, 89:2768-2779 (1994)]. A total of fourteen animals were studied in the control (n=7) and treated (n=7) groups.
The animals were sacrificed using a lethal dose of euthanol (480 mg i.v.) (MTC Pharmaceutical, Cambridge, ON), host and donor hearts were removed, and the coronary arteries were perfused with saline through the aorta, followed by light fixation by perfusion with 2 percent paraformaldehyde (Sigma, St, Louis, Mo.). […] Different sections of the hearts were either saved in 10 percent formalin (BDH Inc., Toronto, ON) for light microscopy studies or immediately frozen in O.T.C. Compound Tissue Tek (Miles Inc., Elkart, Ind.) for specific immunohistochemistry studies.
Three different paraffin-embedded tissue sections from host and donor hearts from both control and treated rabbits were stained by the Movat pentachrome method for light microscopy. Morphometric analysis was performed using a Zeiss microscope attached to a computer-generated video analysis system (Perceptics Inc., NuVision software), as described in Clausell et al., Circulation, 89:2768-2779 (1994). The number of vessels with intimal lesions were counted in all three heart sections from each animal studied and are expressed as a percentage of the total vessel number.
In the host hearts, 999 vessels in the control group and 1054 vessels in the treated group were analyzed. In the donor hearts, 827 vessels in the control group and 617 vessels in the treated group were analyzed. To determine the severity of intimal thickening, the diameter of each traceable vessel in all three sections was measured and the coronary arteries were categorized as small (diameter <100 μm), medium (diameter >100<500 μm) and large (diameter >500 μm). […]

asthmatic sheep = experiment: Treatment of asthmatic sheep (Ascaris suum antigen, crossover); format: in vivo; details: nebulized 1 mg/kg; FIG. 7
Method: Six asthmatic sheep were treated in a double blind cross-over study. […] This study was carried out generally as described in Abraham et al., J. Clin. Invest., 93:776-787 (1994).
The inhibitor compound used here was Compound ID No. 896.52, N-phenylacetyl-Leu-Asp-Phe-D-Pro-NH2, with a control compound that comprised the previously described compound having the same residues in a scrambled sequence. The vehicle for the nebulized compounds was phosphate-buffered saline. The compounds were administered at a dose of 1 mg/kg each, twice a day for three days prior to challenge, as well as 0.5 hours prior to and four hours post challenge on day 4. Because this was a crossover study, each animal received one or the other treatment, followed by a rest and then the other treatment. Each animal therefore served as its own control.
Post challenge airway responsiveness was also assayed. Here, specific lung resistance, SRL, returned to baseline values 24 hours after challenge, however, the sheep were hyperresponsive to inhaled carbachol at that time.

[2] = system: Porcine peripheral blood lymphocytes; experiment: In vitro porcine allograft model: transendothelial lymphocyte migration; format: cell-based; details: 10 μg/ml in the medium; IL-1β-stimulated SMC
Method: A similar study was carried out in vitro using porcine coronary artery endothelial cells (EC; as are present in the IEL) and smooth muscle cells (SMC; as are present in the medial layer of the artery). The two cell types were cultured using a membrane transwell system, with the SMC on the bottom layer in M-199 medium (Gibco Labs.). The SMC were stimulated with 100 ng/ml of interleukin-1β (IL-1β) for 24 hours prior to the start of the assay. Porcine peripheral blood lymphocytes were separated by Ficoll-Hypaque, radiolabeled and incubated overnight (about 18 hours) on the EC.

CC(C)C[C@H](NC(=O)[C@H](CC(=O)O)NC(=O)Cc1ccccc1)C(=O)N[C@@H](Cc1ccccc1)C(=O)N1CCC[C@@H]1C(N)=O [N-phenylacetyl-Asp-Leu-Phe-D-Pro-NH2, reference compound] (PhAc-DLF[dP]-NH2)
Vessel Intimal Thickening: Percent of Vessels ([1]; donor heart, 1 mg/kg s.c.): 88%
Vessel Intimal Thickening: Severity (Percent of Vessel area) ([1]; donor heart, 1 mg/kg s.c.): 36%
Baseline of incidence of intimal thickening ([1]; rabbit own host heart): 1%
Baseline of severity of intimal thickening ([1]; rabbit own host heart): 12%
change from baseline specific lung resistance (SRL) on challenge (asthmatic sheep): had an increase in that pulmonary function (SRL)
reduction of transendothelial lymphocyte migration [2]: did not reduce migration
